# Earlier results as cited in patent US20110257197A1 (Nanjing Cavendish Bio-Engineering Technology Co., Ltd., priority 2008, published 2011).
# Entries after “also recorded” stand apart in the source; their conditions may differ. Like-named read-outs stand apart in the source and are kept apart here.
# Key:
# mice [1] = test system: mice
# mice [2] = details: i.v.
# [3] = in vivo
# guinea pig = details: indicates possibility of causing allergy
# rat = details: i.v.
# red blood cell = details: i.v.
# rodent = details: two-year studies
# mice [4] = test system: mice; remark: listed apart in the source
# [5] = in vivo; remark: listed apart in the source
# Aspergillus fungi = details: in vitro
# [6] = test system: Candida species (including strains of Candida krusei, Candida glabrata, and Candida albicans resistant to fluconazole); details: in vitro
# [7] = test system: Scedosporium and Fusarium species; details: in vitro
# [8] = listed as sulfobutyl ether β-cyclodextrin sodium
compound,measurement,setting,value
sulfobutyl ether β-cyclodextrin sodium [SBECD],dose at which the weight of mice was significantly decreased,mice [1],18 mg/kg/day or higher
same,LD50,mice [2],LD50 > 2000 mg/kg
same,findings on repeated administration,[3],vacuale formation in the urinary-tract epithelium; also recorded: activated macrophages in liver and lung
same,guinea pig maximization test (GPMT) result,guinea pig,positive
same,LD50,rat,LD50 > 2000 mg/kg
same,concentration of significant heamolysis,red blood cell,at 0.04 mg/ml.
same,concentration at which mild hemolysis occurs,red blood cell; [8],20000 ng/mL
same,concentration of significant heamolysis,red blood cell; [8],40000 ng/mL
same,carcinogenicity (pancreatic carcinoma),rodent,carcinogenic
CC(O)CO (stereo not shown) [propylene glycol],NOAEL of maternal toxicity in teratogenic sensitive period,mice [4],1600 mg/kg/day. Ethanol could cause
same,NOAEL of teratogenic toxicity,mice [4],1600 mg/kg/day. Ethanol could cause
same,NOAEL of maternal toxicity in teratogenic sensitive period,rats,1600 mg/kg/day. Ethanol could cause
same,NOAEL of teratogenic toxicity,rats,1600 mg/kg/day. Ethanol could cause
same,LD50,rat,i.v. LD50 ≧ 5000 mg/kg.
same,long term fertility study,[5],studies showed that no abnormity had
CCO [ethanol],LD50,mice [2],1440 mg/kg
same,LD50,rat,"ethanol, in rat, i.v. LD50 = 1973 mg/kg;"
C[C@@H](c1ncncc1F)[C@](O)(Cn1cncn1)c1ccc(F)cc1F [voriconazole],activity against all tested Aspergillus fungi,Aspergillus fungi,active
same,activity against Candida species,[6],active
same,activity against other pathogenic fungi such as Scedosporium and Fusarium species,[7],in vitro activity
same,solubility in water,pH 3,200 µg/mL
same,solubility in water,pH 7,almost insoluble
